A short description of this assay: concentration series on yeast TOR reporter LAP4 – cell-based, MLPCN hits, flow cytometry, dose response (AID 2745).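 Further: yeast exposed to compound for three hours at 30 degrees.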 The conditions noted are these: S. cerevisiae LAP4-GFP reporter, flow cytometry fluorescence; at 33 µM (top of the series). Background: A flow cytometer gives signals particle by particle.

Calls of active or inactive are those of the source. How the calls were made is not given here.

Consider `Cc1ccc(-c2nc(C)sc2CC(=O)Nc2nnc(C)s2)cc1`, for which the LAP4-GFP fluorescence (kMESF) is 3.81 kMESF (inactive). With `O=C(O)C1Sc2[nH]c(=O)sc2C2c3cc(Br)ccc3OC(=O)C12` (stereo unspecified), the LAP4-GFP fluorescence (kMESF) is 5.82 kMESF (inactive).

In the case of `COc1cc(/C=C2\C(=O)ON=C2c2ccc(Cl)cc2)ccc1O`, the LAP4-GFP fluorescence (kMESF) is 9.12 kMESF (inactive). Turning to `CCOC(=O)C1=C(O)c2ccccc2C(=O)/C1=C\c1ccc(C)cc1`, the LAP4-GFP fluorescence (kMESF) was -35.8 kMESF (inactive). Then `CCOC(=O)CS(=O)(=O)c1nc(-c2ccccc2)cc(C(F)(F)F)n1`, with 19.9 kMESF (inactive); and `O=C(NC(=S)Nc1ccc2oc(=O)ccc2c1)c1cccc(Cl)c1`, with 3.47 kMESF (inactive); and `CCC(=O)Nc1ccc(NC(=O)c2cc3ccccc3o2)cc1`, with 3.31 kMESF (inactive).

Turning to `CC(=O)Nc1ncnc2c1c(-c1ccc(Cl)cc1)nn2C(C)(C)C`, the LAP4-GFP fluorescence (kMESF) is 5.09 kMESF (inactive). Regarding `COc1ccc(NC2=C(Cl)C(=O)N(CCc3ccccc3)C2=O)cc1`, the LAP4-GFP fluorescence (kMESF) is 5.81 kMESF (inactive).

On to `O=c1c2cnn(-c3ccccc3)c2ncn1Cc1ccco1`, for which the LAP4-GFP fluorescence (kMESF) is 2.63 kMESF (inactive). As for `O=C(O)c1ccn2c(C(=O)c3ccccc3)c(-c3ccccc3)cc2c1`, the figure is 7.25 kMESF (inactive). As for `CSc1nnc2c3cc(F)ccc3n(C)c2n1`, the figure is 2.93 kMESF (inactive). On to `Cc1cccc(C(=O)NNC(=S)NC(=O)c2ccccc2)c1`, for which the LAP4-GFP fluorescence (kMESF) was 9.62 kMESF (inactive). As for `O=C(CSC1=NS(=O)(=O)c2ccccc21)Nc1ccccc1`, the figure is 7.82 kMESF (inactive); as for `COc1ccc(N2C(=O)CC(Sc3ncn[nH]3)C2=O)c(OC)c1` (stereo unspecified), 13.7 kMESF (inactive); as for `Cc1[nH]c2ccccc2c1C(=O)COC(=O)c1ccc([N+](=O)[O-])s1`, 6.02 kMESF (inactive). As for `CC[C@@]1(c2ccccc2OC)ON(c2ccccc2C(F)(F)F)C1=O`, the LAP4-GFP fluorescence (kMESF) is 6.51 kMESF (inactive). Consider `O=S(=O)(c1ccccc1)c1ccc(C(F)(F)F)cn1`, for which the LAP4-GFP fluorescence (kMESF) is 4.29 kMESF (inactive).

On to `C=CCOc1ccccc1C(=O)/C=C1/C(=O)Nc2ccccc21`, for which the LAP4-GFP fluorescence (kMESF) is 10.2 kMESF (inactive). As for `O=C(Oc1c(Cl)cc(Cl)c2cccnc12)c1cccs1`, the figure is 13.8 kMESF (inactive); as for `Cc1[nH]n(-c2ncc(-c3ccccc3)s2)c(=O)c1C(c1ccc(Cl)cc1)C(C#N)C#N` (stereo unspecified), 8.02 kMESF (inactive). Then `CC(=O)N(C(C)=O)c1ncnc2c1c(-c1ccc(Cl)cc1)nn2C(C)(C)C`, with 3.97 kMESF (inactive); and `O=C1Nc2ccc(Br)cc2/C1=C/C(=O)c1ccc2c(c1)OCO2`, with 10.4 kMESF (inactive); and `O=C1C(=O)c2ccccc2-c2ccccc21`, with 5.27 kMESF (inactive).

Regarding `COc1ccccc1[C@]1(C)ON(c2ccccc2C(F)(F)F)C1=O`, the LAP4-GFP fluorescence (kMESF) was 7.79 kMESF (inactive). With `COc1ccc(C(=O)/C=C2/C(=O)Nc3ccccc32)c(OC)c1`, the LAP4-GFP fluorescence (kMESF) is 10.1 kMESF (inactive).

`O=C1C=CC(=O)N1c1ccc(Sc2ccc([N+](=O)[O-])cc2)cc1`: the LAP4-GFP fluorescence (kMESF) is 5.47 kMESF (inactive).

In the case of `O=C(Nc1ccc(NC(=O)c2cc3ccccc3o2)cc1)c1ccco1`, the LAP4-GFP fluorescence (kMESF) was 3.31 kMESF (inactive). Then `COc1ccc(C2=CC3=C(Br)C(=O)C(C)(O)C(=O)C3=CO2)cc1` (stereo unspecified), with 0.34 kMESF (inactive); and `Cc1ccc(NC(=O)c2nc(S(=O)(=O)Cc3ccccc3)ncc2Cl)cc1`, with 9.01 kMESF (inactive); and `O=C1c2cccc3c([N+](=O)[O-])ccc(c23)C(=O)N1CCc1ccccn1`, with 7.15 kMESF (inactive). Regarding `CCC1(c2ccccc2)ON(c2c(Br)cccc2Br)C1=O` (stereo unspecified), the LAP4-GFP fluorescence (kMESF) was 7.52 kMESF (inactive). `O=C(/C=C/c1ccc(Br)cc1)NC(=S)NNC(=O)c1ccco1`: the LAP4-GFP fluorescence (kMESF) was 5.87 kMESF (inactive).

`CCc1ccc(/C=C/C(=O)c2cc(Br)ccc(=O)c2O)cc1`: the LAP4-GFP fluorescence (kMESF) is 9 kMESF (inactive).

For the compound `C#CCOCCOCCOCCNc1nc(N2CCN(C(=O)CCCCCCCCCCNC(=O)[C@H](CCCCN)n3cc(C)nn3)CC2)nc(N2CCN(C(=O)CCCCCCCCCCNC(=O)[C@H](CCCN=C(N)N)n3cc(C[C@@H](C)CC)nn3)CC2)n1`, the LAP4-GFP fluorescence (kMESF) is 6.77 kMESF (inactive). Then `O=C(OCC(=O)N1CCN(C(=O)c2ccco2)CC1)c1cc(-c2cccc(Br)c2)nc2ccccc12`, with 9.27 kMESF (inactive); and `COc1ccc(C(=O)NC(=S)NNC(=O)CCc2ccccc2)cc1`, with 5.9 kMESF (inactive); and `Oc1c(Br)cc(Br)cc1C=Nc1ccc2c(c1)OCO2`, with 10.8 kMESF (inactive). As for `Cc1ccc(N=Nc2ccc(O)c3ncccc23)cc1`, the figure is 4.95 kMESF (inactive); as for `COc1ccc(/C=C2/C(=O)ON=C2c2ccccc2)cc1OC`, 14 kMESF (inactive); as for `Cc1ccc(C)c(/C=C/C(=O)c2ccccc(=O)c2O)c1`, -0.2 kMESF (inactive). As for `COc1ccc2c(c1)c(/C=C/c1cc[n+](C)cc1)cn2C`, the figure is 4.11 kMESF (inactive); as for `O=C(Sc1cccc2cccnc12)c1ccccc1Br`, 18.8 kMESF (inactive). Consider `CCOc1ccc(NC2=C(Cl)C(=O)N(Cc3ccccc3)C2=O)cc1`, for which the LAP4-GFP fluorescence (kMESF) is 6.11 kMESF (inactive). Then `COc1ccc(CCNC2=C(Cl)C(=O)N(CCc3ccc(OC)c(OC)c3)C2=O)cc1OC`, with 5.91 kMESF (inactive); and `Cc1cc(Br)c2c(c1)/C(=C/C(=O)c1cccs1)C(=O)N2`, with 6.22 kMESF (inactive).

For `Cc1ccc(-c2nc(N)c3c(-c4ccc(C)cc4)nn(C(C)(C)C)c3n2)cc1`, the LAP4-GFP fluorescence (kMESF) is 3.37 kMESF (inactive). Then `Oc1cc(-c2ccc(N3CCCCC3)nc2)cc2cccnc12`, with 4.15 kMESF (inactive); and `O=C(c1ccc(Cl)c([N+](=O)[O-])c1)N1CCN(c2ccccc2)CC1`, with 8.26 kMESF (inactive).

With `O=c1c(-c2ccc(Cl)cc2)[n+]([O-])c2ccccc2n1O`, the LAP4-GFP fluorescence (kMESF) was 16.1 kMESF (inactive). Take `COCCN1C(=O)/C(=C/c2ccc(N3CCCC3)cc2C)SC1=S`: the LAP4-GFP fluorescence (kMESF) is 7.02 kMESF (inactive). As to `COc1cc(/C=C/c2ccc3c(Br)cc(Br)c(O)c3n2)ccc1O`, the LAP4-GFP fluorescence (kMESF) was 11.7 kMESF (inactive). As for `Cc1cc(C)c2c(c1)/C(=C/C(=O)c1ccc(Br)s1)C(=O)N2`, the figure is 6.56 kMESF (inactive); as for `CCN(CC(=O)NC(C)(C)C)C(=O)COc1c(Cl)cc(Cl)c2ccc(C)nc12`, 11.7 kMESF (inactive); as for `O=C(CCS(=O)(=O)c1ccccc1)Nc1nc(-c2ccccn2)cs1`, 3.91 kMESF (inactive). On to `CN(C)c1ccc(/C=C/c2cc[n+](C)cc2)cc1`, for which the LAP4-GFP fluorescence (kMESF) is 1.33 kMESF (inactive).
